Legend:
[1] = test system: HIV strains NL4-3 and NLAD8 adherence to human PEX cells; test: Fluorometric adherence assay, HIV to PEX cells; type: cell-based; conditions: for decrease of cell association to PEX cells: 100 μM; for reduction in cell adherence to PEX cells: lowest concentration, printed 'down to 100 μM'
Experimental: The ability of carbamazepine to block adherence of HIV to human PEX cells was evaluated using a fluorometric adherence assay, essentially as described by Jen et al. (2013, supra). In this regard, PEX cells were seeded to a 96-well plate and allowed to grow to confluence. Fluorescently labelled HIV (10 ng of p24 HIV capsid protein equivalent of HIV in 100 μL of F12 culture media) were then used to challenge (2 h) PEX cells simultaneously with, or without, various concentrations of carbamazepine (as noted). Fluorescence (485/528 nm) intensity, corresponding to HIV cell adherence, was recorded using a Synergy HT Multi-mode Microplate Reader (BioTek Instruments, Winooski, VT USA). The assay was performed in triplicate on 3 separate occasions. A Kruskal-Wallis k-sample analysis of variance was used to determine the statistical significance of the calculated mean of viral-cell adherence.

[2] = test system: HIV strains NL4-3 and NLAD8 adherence to CHO-CR3 cells; test: Fluorometric adherence assay, HIV to CHO cells; type: cell-based
Experimental: To test the ability of HIV to bind to CHO cells in a CR3 dependent fashion, and to test the ability of carbamazepine to block adherence of HIV to CHO-CR3 or CHO-neo cells, a fluorometric adherence assay was used, essentially as described by Jen et al (2013, supra). In this regard, CHO-neo or CHO-CR3 cells were seeded to a 96-well plate and allowed to grow to confluence. Fluorescently labelled HIV (10 ng of p24 HIV capsid protein equivalent of HIV in 100 μL of F12 culture media) were then used to challenge (2 h) CHO cells simultaneously with, or without, various concentrations of carbamazepine (as noted). Fluorescence (485/528 nm) intensity, corresponding to HIV cell adherence, was recorded using a Synergy HT Multi-mode Microplate Reader (BioTek Instruments, Winooski, VT USA). […] A Kruskal-Wallis k-sample analysis of variance was used to determine the statistical significance of the calculated mean of viral-cell adherence.
Having established the CR3-dependent binding of HIV to CHO cells, the inventors next examined the ability of carbamazepine to block the interaction of HIV strains NL4-3 and NLAD8 with the CR3 I-domain using fluorometric adherence assays. CR3-expressing (CHO-CR3) and non-expressing (CHO-neo) CHO cells, were seeded to microtiter plates, and HIV adherence was quantitated fluorometrically, as described by Jen et al. (2013, supra). […]

[3] = test system: N. gonorrhoeae in infected PEX cells; test: Survival assay of N. gonorrhoeae in infected PEX cells; type: cell-based, Neisseria gonorrhoeae
From the text: N. gonorrhoeae strains used in survival assays included MS11 Schoolnik et al (1984, supra), Segal et al (1985, supra) and 1291 Apicella et al (1974, J. Infect Dis. 130(6):619-25), Dudas and Apicella (1988, Infect Immun. 56(2):499-504), which are commonly used to study gonococcal pathogenesis. Also examined were a panel of low-passage clinical isolates (FIG. 14; i.e., N. gonorrhoeae strains LT38097, UT38885, PID-26, and SK92-679). Strains 1291 and LT38097 are male urethral isolates; strains MS11 and UT38885 were obtained from women with uncomplicated gonococcal cervicitis, strain PID-26 was obtained from a patient with pelvic inflammatory disease; and strain SK92-679 is a blood isolate from a patient with disseminated infection. Antibiotic-resistant N. gonorrhoeae strains tested were obtained from Public Health England and comprised WHO-L, WHO-M, WHO-X (H041), WHO-Y (F89), and WHO-Z (A8806), see FIG. 15. For use, bacteria were harvested from overnight (37° C., 5% CO2), GC-IsoVitaleX agar plate cultures and enumerated spectrophotometrically, as previously described Edwards et al (2000, Infect Immun 68(9):5354-63). Infection studies were performed using a multiplicity of infection of 100 Edwards et al (2000, Infect Immun 68(9):5354-63).
PEX cells were challenged with the noted N. gonorrhoeae strains for 90 min. For single dose survival assays, the infection medium was then removed, cells were rinsed thrice, and fresh medium containing 1% DMSO (vehicle control), carbamazepine ([…], as noted), or ceftriaxone (0.1 μg/mL or 0.5 μg/mL, positive control) was added. Infections were then allowed to proceed for an additional 24 h or 48 h. At the indicated times post-treatment, the infection medium was removed, the PEX cell monolayers were rinsed thrice, lysed, and viable N. gonorrhoeae were enumerated by counting colony forming units after plating serial dilutions of the PEX cell lysates (for example see 12). In some experiments (i.e., two dose survival assays for example see FIG. 13), a second dose of carbamazepine was added at 24 hours-post addition of the first carbamazepine dose. Infections were then allowed to proceed for an additional 24 h before plating the PEX cell lysate, as above. For either assay, the percentage of N. gonorrhoeae that survived carbamazepine or antibiotic treatment was determined as a function of bacteria that survived DMSO (vehicle control) treatment (set to 100%). […] To investigate whether the small percentage of the surviving bacterial cells have developed resistance to the treatment, sequential infection assays were conducted. Bacteria were harvested from the CFU count plates and then used to inoculate a new assay. […] All assays were performed in triplicate on 3 separate occasions with the noted bacterial strains. A Kruskal-Wallis k-sample analysis of variance was used to determine the statistical significance of bacterial survival.
The ability of a single dose of methyldopa was evaluated to inhibit survival of low-passage N. gonorrhoeae isolates in PEX cells challenged with those isolates. To establish infection, PEX cells were challenged with N. gonorrhoeae for 90 min using the noted low-passage isolates. Infections were then allowed to proceed for an additional 24 h or 48 h in the presence or absence of DMSO (1%, vehicle control), methyldopa (10 μM, Md), or ceftriaxone (0.5 μg/mL, positive control, Cfx).

[4] = target: T1, human recombinant I-domain (rI-domain) of CD11b (Homo sapiens, UniProt P11215); test: Surface plasmon resonance binding to human rI-domain (KD); conditions: SPR, single cycle kinetics, 25° C., PBS; read-out: KD
T1 construct: made in house
T1 sequence (P11215 150-328 limits assumed): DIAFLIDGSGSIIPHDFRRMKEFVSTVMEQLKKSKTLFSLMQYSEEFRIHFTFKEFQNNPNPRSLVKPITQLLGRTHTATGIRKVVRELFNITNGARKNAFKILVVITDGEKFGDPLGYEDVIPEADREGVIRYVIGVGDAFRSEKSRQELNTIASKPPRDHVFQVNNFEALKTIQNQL

Question: What does the source list for NC(=O)N1c2ccccc2C=Cc2ccccc21 [carbamazepine, 5H-dibenzo[b,f]azepine-5-carboxamide]?
Answer: decrease of cell association to PEX cells ([1]; NL4-3, 2 h): 88.53%±0.37; reduction in cell adherence to PEX cells ([1]; NL4-3): 59.65%±0.41; HIV adherence to PEX cells with increasing concentrations ([1]; NL4-3 and NLAD8, 2 h): dose-dependent decrease; decrease of cell association to PEX cells ([1]; NLAD8, 2 h): 87.98%±0.48; reduction in cell adherence to PEX cells ([1]; NLAD8): 59.65%±0.24; HIV adherence to CHO-CR3 cells compared with CHO-neo cells ([2]; 1 μM, 2 h post-challenge): not significantly different than that recorded for CHO-neo cells; HIV adherence to CHO-CR3, but not CHO-neo, cells with increasing concentrations ([2]; 2 h): dose-dependent decrease; killing of gonococci ([3]; by 24 hours, concentrations of 10 μM or higher): greater than 99.95%; gonococcal killing ([3]; low-passage isolates, 24 h, 10 μM single dose): Greater than 99%; gonococcal killing ([3]; multidrug-resistant strains, 24 h, 10 μM single dose): Greater than 99%; gonococcal killing ([3]; strain MS11, by 24 h, single 100 nM dose): Greater than 99%; gonococcal killing ([3]; strain MS11, by 48 h, 2 100 nM doses applied 24 h apart): greater than 99.95%; gonococcal killing ([3]; strain MS11, concentrations greater than or equal to 10 nM, 24 h or 48 h): Greater than 98%; gonococcal killing ([3]; strain MS11, sequential infection, following the second infection, 10 μM, 24 h): 100%; Kd [4]: 2.12 nM

From patent publication US12564596B2, “Agents and methods for modulating pathogen activity” (Griffith University, priority 2018, dated 2026)
